According to ChEMBL document CHEMBL1123050, “New cysteamine (2-chloroethyl)nitrosoureas. Synthesis and preliminary antitumor results” (1985):

What was measured:
[1] = tested on: Mus musculus; test: Antitumor activity was evaluated against L1210 leukemia, injected intraperitoneally at a dose 115 umol/kg; infinity-50-100%survivals; type: functional, organism-based
[2] = tested on: Mus musculus; test: Antitumor activity was evaluated against L1210 leukemia, injected intraperitoneally at a dose 155 umol/kg; infinity-50-100%survivals; type: functional, organism-based
[3] = tested on: Mus musculus; test: Antitumor activity was evaluated against L1210 leukemia, injected intraperitoneally at a dose 80 umol/kg; infinity-50-100%survivals; type: functional, organism-based
[4] = tested on: Mus musculus; test: Antitumor activity was evaluated against L1210 leukemia, injected intraperitoneally at a dose 195 umol/kg; infinity-50-100%survivals; type: functional, organism-based
[5] = tested on: Mus musculus; test: Antitumor activity was evaluated against L1210 leukemia, injected intravenously at a dose 115 umol/kg; infinity-50-100%survivals; type: functional, organism-based
[6] = tested on: Mus musculus; test: Antitumor activity was evaluated against L1210 leukemia, injected intravenously at a dose 155 umol/kg; infinity-50-100%survivals; type: functional, organism-based
[7] = tested on: Mus musculus; test: Antitumor activity was evaluated against L1210 leukemia, injected intravenously at a dose 195 umol/kg; infinity-50-100%survivals; type: functional, organism-based
[8] = tested on: L1210; test: (§1) Antitumor activity was evaluated against L1210 leukemia, injected intraperitoneally at a dose 40 umol/kg; type: functional, Mus musculus
[9] = tested on: Mus musculus; test: Number of survivors/ number of animals tested at the dose of 40 mg/Kg, iv; 0/6; type: functional
[10] = tested on: Mus musculus; test: Number of survivors/ number of animals tested at the dose of 40 mg/Kg; 2/6; type: functional
[11] = tested on: Mus musculus; test: Number of survivors/ number of animals tested at the dose of 80 mg/Kg, iv; 0/6; type: functional
[12] = tested on: Mus musculus; test: Number of survivors/ number of animals tested at the dose of 80 mg/Kg; 6/6; type: functional
[13] = tested on: Mus musculus; test: Number of survivors/ number of animals tested at the dose of 210 mg/Kg; 0/6; type: functional
[14] = tested on: Mus musculus; test: Number of survivors/ number of animals tested at the dose of 210 mg/Kg; 3/6; type: functional
[15] = tested on: Mus musculus; test: Number of survivors/ number of animals tested at the dose of 125 mg/Kg, iv; 6/6; type: functional
[16] = tested on: Mus musculus; test: Number of survivors/ number of animals tested at the dose of 125 mg/Kg; 6/6; type: functional
[17] = tested on: Mus musculus; test: Number of survivors/ number of animals tested at the dose of 165 mg/Kg; 5/6; type: functional
[18] = tested on: Mus musculus; test: Number of survivors/ number of animals tested at the dose of 165 mg/Kg; 6/6; type: functional
[19] = tested on: Mus musculus; test: Antitumor activity was evaluated against L1210 leukemia, injected intravenously at a dose 40 umol/kg; type: functional
[20] = tested on: Mus musculus; test: Antitumor activity was evaluated against L1210 leukemia, injected intravenously at a dose 80 umol/kg; type: functional
[21] = tested on: Mus musculus; test: Antitumor activity was evaluated against L1210 leukemia, injected intraperitoneally at a dose 210 umol/kg; type: functional
[22] = tested on: Mus musculus; test: (§2) Number of survivors/ number of animals tested at the dose of 40 mg/Kg, iv; 6/6; type: functional
[23] = tested on: Mus musculus; test: Number of survivors/ number of animals tested at the dose of 60 mg/Kg, iv; 4/6; type: functional
[24] = tested on: Mus musculus; test: (§3) Number of survivors/ number of animals tested at the dose of 20 mg/Kg, iv; 0/6; type: functional
[25] = tested on: Mus musculus; test: Antitumor activity was evaluated against L1210 leukemia, injected intravenously at a dose umol/kg; type: functional
[26] = tested on: Mus musculus; test: Antitumor activity was evaluated against L1210 leukemia, injected intravenously at a dose umol/kg, survivors/6; type: functional
[27] = tested on: Mus musculus; test: Antitumor activity was evaluated against L1210 leukemia, injected intravenously at a dose umol/kg; infinity-50-100%survivals; type: functional, organism-based
[28] = tested on: Mus musculus; test: Antitumor activity was evaluated against L1210 leukemia, injected intraperitoneally at a dose 125 umol/kg; infinity-50-100%survivals; type: functional, organism-based
[29] = tested on: Mus musculus; test: Antitumor activity was evaluated against L1210 leukemia, injected intraperitoneally at a dose 165 umol/kg; infinity-50-100%survivals; type: functional, organism-based
[30] = tested on: Mus musculus; test: Antitumor activity was evaluated against L1210 leukemia, injected intravenously at a dose 165 umol/kg; infinity-50-100%survivals; type: functional, organism-based
[31] = tested on: Mus musculus; test: Antitumor activity was evaluated against L1210 leukemia, injected intravenously at a dose 210 umol/kg; infinity-50-100%survivals; type: functional, organism-based
[32] = tested on: Mus musculus; test: Antitumor activity was evaluated against L1210 leukemia, injected intravenously at a dose 125 umol/kg; infinity-50-100%survivals; type: functional, organism-based
[33] = tested on: Mus musculus; test: Antitumor activity was evaluated against L1210 leukemia, injected intravenously at a dose 40-250 umol/kg; type: functional
[34] = tested on: Mus musculus; test: Number of survivors/ number of animals tested at the dose of 80 mg/Kg, ip; 5/6; type: functional
[35] = tested on: Mus musculus; test: Number of survivors/ number of animals tested at the dose of 235 mg/Kg, ip; 0/6; type: functional
[36] = tested on: Mus musculus; test: Number of survivors/ number of animals tested at the dose of 235 mg/Kg, iv; 5/6; type: functional
[37] = tested on: Mus musculus; test: Number of survivors/ number of animals tested at the dose of 40 mg/Kg, ip; 0/6; type: functional
[38] = tested on: Mus musculus; test: Number of survivors/ number of animals tested at the dose of 115 mg/Kg, ip; 6/6; type: functional
[39] = tested on: Mus musculus; test: Number of survivors/ number of animals tested at the dose of 115 mg/Kg, iv; 6/6; type: functional
[40] = tested on: Mus musculus; test: Number of survivors/ number of animals tested at the dose of 155 mg/Kg, ip; 6/6; type: functional
[41] = tested on: Mus musculus; test: Number of survivors/ number of animals tested at the dose of 155 mg/Kg, iv; 6/6; type: functional
[42] = tested on: Mus musculus; test: Number of survivors/ number of animals tested at the dose of 195 mg/Kg, ip; 5/6; type: functional
[43] = tested on: Mus musculus; test: Number of survivors/ number of animals tested at the dose of 195 mg/Kg, iv; 5/6; type: functional
[44] = tested on: Mus musculus; test: as §1; type: functional
[45] = tested on: Mus musculus; test: Antitumor activity was evaluated against L1210 leukemia, injected intraperitoneally at a dose 295 umol/kg; type: functional
[46] = tested on: Mus musculus; test: Antitumor activity was evaluated against L1210 leukemia, injected intravenously at a dose 235 umol/kg; type: functional
[47] = tested on: L1210; test: Number of survivors/ number of animals tested at the dose of 80 mg/Kg, iv; 1/6; type: functional, Mus musculus
[48] = tested on: L1210; test: Number of survivors/ number of animals tested at the dose of 60 mg/Kg, iv; 6/6; type: functional, Mus musculus
[49] = tested on: L1210; test: Number of survivors/ number of animals tested at the dose of 120 mg/Kg, iv; 0/6; type: functional, Mus musculus
[50] = tested on: L1210; test: as §3; type: functional, Mus musculus
[51] = tested on: L1210; test: as §2; type: functional, Mus musculus
[52] = tested on: Mus musculus; test: Antitumor activity was evaluated against L1210 leukemia, injected intravenously at a dose 20 umol/kg; type: functional
[53] = tested on: Mus musculus; test: Antitumor activity was evaluated against L1210 leukemia, injected intravenously at a dose 120 umol/kg; type: functional
[54] = tested on: L1210; test: Antitumor activity was evaluated against L1210 leukemia, injected intraperitoneally at a dose 120 umol/kg; type: functional, Mus musculus
[55] = tested on: L1210; test: Antitumor activity was evaluated against L1210 leukemia, injected intraperitoneally at a dose 25 umol/kg; type: functional, Mus musculus
[56] = tested on: L1210; test: Antitumor activity was evaluated against L1210 leukemia, injected intraperitoneally at a dose 50 umol/kg; infinity-50-100%survivals; type: functional, cell-based; conditions: Mus musculus
[57] = tested on: L1210; test: Antitumor activity was evaluated against L1210 leukemia, injected intraperitoneally at a dose 75 umol/kg; infinity-50-100%survivals; type: functional, cell-based; conditions: Mus musculus
[58] = tested on: L1210; test: Antitumor activity was evaluated against L1210 leukemia, injected intraperitoneally at a dose 95 umol/kg; infinity-50-100%survivals; type: functional, cell-based; conditions: Mus musculus
[59] = tested on: L1210; test: Number of survivors/ number of animals tested at the dose of 95 mg/Kg; 3/6; type: functional, Mus musculus
[60] = tested on: L1210; test: Number of survivors/ number of animals tested at the dose of 50 mg/Kg; 6/6; type: functional, Mus musculus
[61] = tested on: L1210; test: Number of survivors/ number of animals tested at the dose of 75 mg/Kg; 6/6; type: functional, Mus musculus
[62] = tested on: L1210; test: Number of survivors/ number of animals tested at the dose of 25 mg/Kg; 0/6; type: functional, Mus musculus
[63] = tested on: L1210; test: Number of survivors/ number of animals tested at the dose of 125 mg/Kg; 0/6; type: functional, Mus musculus

Structure (SMILES): CS(=O)(=O)CCN(N=O)C(=O)NCCCl.CS(=O)(=O)CCNC(=O)N(CCCl)N=O [listing 1 of 2 here]
- T/C x100 [1]: infinity-50-100%survivals
- T/C x100 [2]: infinity-50-100%survivals
- T/C x100 [3]: infinity-50-100%survivals
- T/C x100 [4]: infinity-50-100%survivals
- T/C x100 [5]: infinity-50-100%survivals
- T/C x100 [6]: infinity-50-100%survivals
- T/C x100 [7]: infinity-50-100%survivals

Structure (SMILES): C[S+]([O-])CCN(N=O)C(=O)NCCCl.C[S+]([O-])CCNC(=O)N(CCCl)N=O (stereo unspecified) [listing 1 of 2 here]
- T/C x100 [8]: 300
- Survivors [9]: 0
- Survivors [10]: 2
- Survivors [11]: 0
- Survivors [12]: 6
- Survivors [13]: 0
- Survivors [14]: 3
- Survivors [15]: 6
- Survivors [16]: 6
- Survivors [17]: 5
- Survivors [18]: 6
- T/C x100 [19]: 170
- T/C x100 [20]: 270
- T/C x100 [21]: 295

Structure (SMILES): C[S+]([O-])CCNC(=O)N(CCCl)N=O (stereo unspecified)
- Survivors [22]: 6
- Survivors [23]: 4
- Survivors [11]: 0
- Survivors [24]: 0
- T/C x100 [25]: 190
- T/C x100 [26]: 190
- T/C x100 [27]: infinity-50-100%survivals

Structure (SMILES): C[S+]([O-])CCN(N=O)C(=O)NCCCl.C[S+]([O-])CCNC(=O)N(CCCl)N=O (stereo unspecified) [listing 2 of 2 here]
- T/C x100 [3]: infinity-50-100%survivals
- T/C x100 [28]: infinity-50-100%survivals
- T/C x100 [29]: infinity-50-100%survivals
- T/C x100 [30]: infinity-50-100%survivals
- T/C x100 [31]: infinity-50-100%survivals
- T/C x100 [32]: infinity-50-100%survivals

Structure (SMILES): C[S+]([O-])CCN(N=O)C(=O)NCCCl (stereo unspecified)
- T/C x100 [33]: <125

Structure (SMILES): CS(=O)(=O)CCN(N=O)C(=O)NCCCl
- T/C x100 [33]: <125

Structure (SMILES): CS(=O)(=O)CCN(N=O)C(=O)NCCCl.CS(=O)(=O)CCNC(=O)N(CCCl)N=O [listing 2 of 2 here]
- Survivors [9]: 0
- Survivors [34]: 5
- Survivors [11]: 0
- Survivors [35]: 0
- Survivors [36]: 5
- Survivors [37]: 0
- Survivors [38]: 6
- Survivors [39]: 6
- Survivors [40]: 6
- Survivors [41]: 6
- Survivors [42]: 5
- Survivors [43]: 5
- T/C x100 [44]: 190
- T/C x100 [19]: 190
- T/C x100 [20]: 230
- T/C x100 [45]: 410
- T/C x100 [46]: 290

Structure (SMILES): CS(=O)(=O)CCNC(=O)N(CCCl)N=O
- Survivors [47]: 1
- Survivors [48]: 6
- Survivors [49]: 0
- Survivors [50]: 0
- Survivors [51]: 6
- T/C x100 [52]: 200
- T/C x100 [20]: 300
- T/C x100 [53]: 190

Structure (SMILES): O=NN(CCCl)C(=O)NCCSSCCN(N=O)C(=O)NCCCl.O=NN(CCSSCCN(N=O)C(=O)NCCCl)C(=O)NCCCl
- T/C x100 [54]: 125
- T/C x100 [55]: 250
- T/C x100 [56]: infinity-50-100%survivals
- T/C x100 [57]: infinity-50-100%survivals
- T/C x100 [58]: infinity-50-100%survivals
- Survivors [59]: 3
- Survivors [60]: 6
- Survivors [61]: 6
- Survivors [62]: 0
- Survivors [63]: 0
